Experiments:
IDH1 R132H [1] = target: T1, IDH1 R132H (Homo sapiens, UniProt O75874, R132H); assay: Ligand-observed 1H NMR (CPMG-edited, 700 MHz) binding, IDH1 R132H; settings: line broadening, 10 μM inhibitor, 50 mM tris-D11-HCl pH 7.5
T1 construct: made in house; host or cells: Escherichia coli BL21(DE3) pLyS
Description: (§1) Additional solvent presaturation was applied for 2 s. Samples contained 160 μL of 10 μM compound (0.2% DMSO) in 50 mM tris-D11-HCl, pH 7.5 in 90% H2O/10% D2O (v/v). […] 200 or 400 scans per IDH concentration were recorded, and signals corresponding to the compound were integrated and processed using TopSpin 3.6.1 software.

wt IDH1 [2] = target: T2, wt IDH1 (Homo sapiens, UniProt O75874); assay: Circular dichroism (CD) melting temperature, wt IDH1; format: binding; settings: inhibitor 42 μM, IDH 4.2 μM (0.2 mg/mL); read-out: Δ Tm/°C by CD wt IDH1
T2 construct: made in house; host or cells: Escherichia coli BL21(DE3) pLyS
T2 sequence (O75874 whole entry): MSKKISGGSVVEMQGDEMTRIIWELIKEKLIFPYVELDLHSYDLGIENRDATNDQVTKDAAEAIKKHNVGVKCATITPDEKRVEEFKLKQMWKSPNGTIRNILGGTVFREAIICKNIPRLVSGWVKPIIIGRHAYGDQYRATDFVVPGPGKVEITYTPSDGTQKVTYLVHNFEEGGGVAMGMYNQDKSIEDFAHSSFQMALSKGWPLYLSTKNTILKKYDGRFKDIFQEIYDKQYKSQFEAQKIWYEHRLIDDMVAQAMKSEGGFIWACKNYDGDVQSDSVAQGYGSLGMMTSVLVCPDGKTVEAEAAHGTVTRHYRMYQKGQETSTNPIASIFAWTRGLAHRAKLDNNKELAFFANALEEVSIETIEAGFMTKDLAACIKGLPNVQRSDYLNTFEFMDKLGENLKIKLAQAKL
Description: (§2) CD spectra were acquired using a Chirascan CD spectrometer (Applied Photophysics) with a Peltier temperature-control cell holder. Experiments were carried out in a 0.1 cm path length quartz cuvette at 20 °C. […] Spectra were averaged (n = 3) and smoothed (window size = 7) using the Savitzky–Golay filter. The mean residue ellipticity (MRE) was calculated according to the formula [drawing 1] where θ is the degree of ellipticity, N is the number of amino acids, c is the concentration (mol/L), and l is the path length (cm).
(§3) Measurements were conducted in 2 °C increments. The melting temperature was calculated using a Boltzmann sigmoidal model in GraphPad Prism v5.04.

IDH1 R132H [3] = target: T1, IDH1 R132H; assay: Circular dichroism (CD) melting temperature, IDH1 R132H; format: binding; settings: inhibitor 42 μM, IDH 4.2 μM (0.2 mg/mL); read-out: Δ Tm/°C by CD IDH1 R132H
Description: as §2, §3

wt IDH1 [4] = target: T2, wt IDH1; assay: Ligand-observed 1H NMR (CPMG-edited, 700 MHz) binding, wt IDH1; settings: line broadening, 10 μM inhibitor, 50 mM tris-D11-HCl pH 7.5
Description: as §1

IDH1 R132H [5] = target: T1, IDH1 R132H; assay: Differential scanning fluorimetry (DSF) thermal shift, IDH1 R132H; format: binding; settings: largest change in Tm of IDH1 ([…]) with 3-100 μM inhibitor
Description: Thermal shift experiments were carried out using Sypro Orange and a CFX96 Touch Real-Time PCR Detection System (Bio-Rad) machine.[42] […] The standard assay buffer contains 50 mM tris–HCl at pH 7.5. Various concentrations of compounds (1% DMSO final) were mixed with IDH1 for thermal stabilization studies. […] Bio-Rad CFX Manager was used to determine the melting temperature, Tm.

IDH1 R132H [6] = target: T1, IDH1 R132H; assay: Isothermal titration calorimetry (ITC), IDH1 R132H; format: binding; settings: 40 μM IDH1, 50 mM tris-HCl pH 7.5, 25 °C
Description: (§4) ITC was conducted using a Malvern MicroCal PEAQ-ITC Automated machine (Malvern Panalytical). In general, IDH1 was prepared in 50 mM tris–HCl, pH 7.5, and the compounds were dissolved in the same buffer. 400 μL of cell solution containing 40 μM IDH1 [4% (v/v) DMSO] and 200 μL of the titrant containing 200 or 400 μM compound [2% or 4% (v/v) DMSO] were transferred to an ITC plate (Malvern Panalytical WEL020854-010). […] The injection setup consisted of 19 injections, with 1 initial injection of 0.4 μL and 18 subsequent injections of 2.0 μL each with 150 s between the injections. Thermodynamic parameters were obtained using MicroCal PEAQ-ITC analysis software.

wt IDH1 [7] = target: T2, wt IDH1; assay: Absorbance turnover assay (NADPH, 340 nm), wt IDH1-catalyzed conversion of isocitrate to 2OG; format: biochemical; settings: wt IDH1 (2 nM), isocitrate to 2OG; 100 mM tris-HCl, 10 mM MgCl2, pH 8.0; read-out: IC50/nM wt IDH1
Description: (Figure 3, Scheme 1). […] We employed ^1H NMR (700 MHz) spectroscopy to simultaneously monitor NADPH, NADP^+, 2OG, and 2HG levels (Figure S3) in order to validate observations from the absorbance assays.
(§5) IDH1 activities were measured spectrophotometrically by monitoring changes in NADPH absorbance at 340 nm.[10] […] The difference in absorbance, ΔA340, in the linear range of the reaction profile was converted to % residual activity using a DMSO control as the 100% residual activity reference. […] Experiments were performed in (at least) triplicate. The standard assay buffer for IDH1 consists of 100 mM tris–HCl, 10 mM MgCl2, 0.005% (v/v) Tween 20, pH 8.0, 0.2 mM DTT, and 0.1 mg/mL BSA. In general, compounds [25 μL, 0.4% (v/v) DMSO] were pre-incubated with IDH1 (25 μL) for 12 min, followed by addition of DL-isocitrate/2OG (25 μL) and NADP^+/NADPH (25 μL) to initiate the reaction. The substrate/cofactor concentrations were optimized by determining KM values for substrates/cofactors as described.[10]

IDH1 R132H [8] = target: T1, IDH1 R132H; assay: Non-denaturing MS binding, IDH1 R132H; settings: Figure S7b
Description: Non-denaturing mass spectra were obtained using a quadrupole time-of-flight mass spectrometer (Synapt HD MS, Waters, Manchester, UK).[44],[45] […] Protein concentrations were measured using a Nanodrop spectrometer (Thermo Scientific NanoDrop One). Compounds were dissolved in MeOH to avoid DMSO interference with mass spectra. IDH1 (20 μL of 50 μM final) and the compound of interest (1–4% (v/v) MeOH) in 200 mM ammonium acetate at pH 7.5 were pipetted into wells of a sample plate of an automated chip-based nano-electrospray ion source (TriVersa Nanomate, Advion, Ithaka, NY, USA). Compounds were serially diluted in buffer and mixed with IDH1 diluted in buffer. The mixture was sprayed through a nozzle in a Nanomate chip at a spray voltage of 1.8–2.0 kV (spray backing gas pressure 0.8–1.0 psi, inlet pressure 3.8 mbar). […] Data collection and analyses used Waters MassLynx software. Mass spectra were calibrated externally using CsI solution. KD values were calculated using eq 2 as reported[46] at each compound concentration and are reported as an average across multiple concentrations. For inhibitors with a binding stoichiometry of two inhibitors/IDH dimer, the inhibitor-bound protein peak intensity used was a sum of first and second inhibitor-bound protein peak intensities. Data for the IDH1 dimer m/z = 20^+ charge state are shown. For clarity, only 2× NADPH bound protein peaks are annotated.

IDH1 R132H [9] = target: T1, IDH1 R132H; assay: Absorbance turnover assay (NADPH, 340 nm), IDH1 R132H-catalyzed conversion of 2OG to 2HG; format: biochemical
Description: as §5

wt IDH1 [10] = target: T2, wt IDH1; assay: Isothermal titration calorimetry (ITC), wt IDH1; format: binding; settings: 40 μM IDH1, 50 mM tris-HCl pH 7.5, 25 °C
Description: as §4

T1 sequence (O75874 whole entry R132H): as the sequence (O75874 whole entry) above, with R132H counted along it

A Kd (IDH1 R132H [1]) of 8.6 µM, a ΔTm at 42 µM (wt IDH1 [2]) of 2.9 °C and a ΔTm at 42 µM (IDH1 R132H [3]) of 7.7 °C were found for `Cc1ccccc1C(C(=O)NC1CCCCC1)N(C(=O)Cn1ccnc1C)c1cccc(F)c1` (centres unmarked) [AGI-5198] in this work. The Kd (wt IDH1 [4]) was 9.1 µM, the “Δ Tm/°C by DSF IDH1 R132H” value (IDH1 R132H [5]) was 6.0 °C and the Kd (IDH1 R132H [6]) was over 400 µM. The IC50 (wt IDH1 [7]) was over 10000 nM, the “stoichiometry, inhibitors per IDH1 dimer, IDH1 R132H” value (IDH1 R132H [8]) was 1 and the “Selectivity against IDH1 R132H over IDH1 wt” value (IDH1 R132H [9]; IC50 (IDH1 wt)/IC50 (IDH1 R132H)) was over 164. For the same compound, the IC50 (IDH1 R132H [9]; IDH1 R132H (30 nM), 2OG to 2HG, 100 mM tris-HCl, 10 mM MgCl2, pH 8.0) was 61 nM and the Kd (wt IDH1 [10]) was over 400 µM.

Source: article PMC10108345, “Differentiating Inhibition Selectivity and Binding Affinity of Isocitrate Dehydrogenase 1 Variant Inhibitors” (Journal of Medicinal Chemistry, 2023)
